The subject of the first test is A431. Kind of test: Cell proliferation IC50 assay (Cell Titer GLO), A431 cells. The format is cell-based. Particulars: Homo sapiens, A-431; Table 6; A431, 72 h; read-out: A431 IC50. The method, then: (§1) IC50 of compounds in the present invention was determined by Cell Titer GLO reagent from Promega. The procedures are as follows:
(§2) Tumor cells were cultured in specified medium in an incubator at 37° C. and 5% CO2. The cells were passaged periodically. Cells at the logarithmic growth phase were collected for plating at a density of 2000-4000 cells/well. The next day, the compounds of the present invention were serially diluted and added to the cells, with DMSO being the negative control and the culture media without cells being the blank control. The plate was incubated in the incubator for 72 h. The cell viability assay was performed by adding the detection reagents to the cell culture media according to Cell Titer GLO reagent instructions and detecting luminescent signals on an EnVision microplate reader (PerkinElmer).
(§3) Inhibition of cell growth by the compounds of the present invention was plotted by Prism Graphpad software for statistically calculating the IC50 of the compound of the present invention.
Background: In ATP-based viability assays light output follows the ATP content of the culture.
T1 sequence (P00533 with tags, fused parts or gaps DEL746-750/C797S, form open): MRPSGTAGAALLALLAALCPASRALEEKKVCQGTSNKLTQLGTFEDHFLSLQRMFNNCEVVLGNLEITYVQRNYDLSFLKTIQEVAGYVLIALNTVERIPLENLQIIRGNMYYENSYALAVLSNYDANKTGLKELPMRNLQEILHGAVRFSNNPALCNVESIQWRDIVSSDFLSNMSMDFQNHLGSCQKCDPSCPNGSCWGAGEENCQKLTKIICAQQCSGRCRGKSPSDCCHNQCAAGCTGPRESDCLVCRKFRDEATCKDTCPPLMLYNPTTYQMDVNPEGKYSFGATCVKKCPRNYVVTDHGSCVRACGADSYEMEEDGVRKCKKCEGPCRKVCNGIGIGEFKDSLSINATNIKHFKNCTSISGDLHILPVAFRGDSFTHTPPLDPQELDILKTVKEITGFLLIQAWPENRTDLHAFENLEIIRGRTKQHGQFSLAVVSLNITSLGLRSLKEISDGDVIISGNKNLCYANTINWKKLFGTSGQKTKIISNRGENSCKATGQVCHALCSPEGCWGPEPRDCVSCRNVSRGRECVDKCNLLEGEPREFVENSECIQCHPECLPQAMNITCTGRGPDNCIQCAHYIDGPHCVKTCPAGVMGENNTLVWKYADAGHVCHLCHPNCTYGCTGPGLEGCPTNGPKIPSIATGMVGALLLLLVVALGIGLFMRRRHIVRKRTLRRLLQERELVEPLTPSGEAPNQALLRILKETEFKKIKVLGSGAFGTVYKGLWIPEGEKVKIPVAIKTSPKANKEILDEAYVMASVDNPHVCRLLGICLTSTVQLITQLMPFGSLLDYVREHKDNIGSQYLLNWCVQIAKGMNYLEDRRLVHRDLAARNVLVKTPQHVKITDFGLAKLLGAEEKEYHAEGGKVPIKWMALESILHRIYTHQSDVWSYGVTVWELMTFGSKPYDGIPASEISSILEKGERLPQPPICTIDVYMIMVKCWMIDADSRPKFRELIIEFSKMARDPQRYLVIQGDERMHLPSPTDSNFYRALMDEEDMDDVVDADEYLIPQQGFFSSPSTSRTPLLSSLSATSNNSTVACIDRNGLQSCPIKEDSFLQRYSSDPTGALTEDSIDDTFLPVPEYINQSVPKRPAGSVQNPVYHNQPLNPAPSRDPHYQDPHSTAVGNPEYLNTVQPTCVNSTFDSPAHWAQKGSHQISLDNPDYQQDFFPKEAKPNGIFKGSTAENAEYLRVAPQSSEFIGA
One may read the IC50 as the concentration that inhibits the measured activity by half. For the compound `CCc1cc(Nc2ncc(-c3cnn(C)c3)c(Nc3ccccc3P(C)(C)=O)n2)c(OC)cc1N1CCC(N2CCN(Cc3ccc4c(c3)CN(C3CCC(=O)NC3=O)C4=O)CC2)CC1` (stereo not shown) [Example E217], the IC50 is over 4000 nM.

As for `CCc1cc(Nc2ncc(Cl)c(Nc3ccccc3P(C)(C)=O)n2)c(OC)cc1N1CCC(N2CCN(CCCCOc3cccc4c3CN(C3CCC(=O)NC3=O)C4=O)CC2=O)CC1` (stereo not shown) [Example E101], the IC50 was determined as 1440 nM.

Turning to `CCc1cc(Nc2ncc(Cl)c(Nc3ccccc3P(C)(C)=O)n2)c(OC)cc1N1CCC(N2CCN(CCOc3cc(F)cc4c3CN(C3CCC(=O)NC3=O)C4=O)CC2)CC1` (stereo not shown) [Example E66], the IC50 worked out at 1990 nM.

As to `CCc1cc(Nc2ncc(Cl)c(Nc3ccc4[nH]ncc4c3P(C)(C)=O)n2)c(OC)cc1N1CCC(N2CCN(CCC#Cc3cccc4c3CN(C3CCC(=O)NC3=O)C4=O)CC2)CC1` (stereo not shown) [Example E51], the IC50 is 1090 nM.

Take `CCc1cc(Nc2nc(Nc3ccccc3P(C)(C)=O)c3cc[nH]c3n2)c(C(F)(F)F)cc1N1CCC(N2CCN(CCCCOc3cccc4c3CN(C3CCC(=O)NC3=O)C4=O)CC2)CC1` (stereo not shown) [Example E154]: the IC50 was over 4000 nM.

For `CCc1cc(Nc2nc(Nc3ccccc3P(C)(C)=O)c3cc[nH]c3n2)c(OC)cc1N1CCC(N2CCN(CCCCOc3cccc4c3CN(C3CCC(=O)NC3=O)C4=O)CC2)CC1` (stereo not shown) [Example E64], the IC50 was over 4000 nM.

As to `CCc1cc(Nc2nc(Nc3ccccc3P(C)(C)=O)c3cc[nH]c3n2)c(C(C)(C)O)cc1N1CCC(N2CCN(CCCCOc3cccc4c3CN(C3CCC(=O)NC3=O)C4=O)CC2)CC1` (stereo not shown) [Example E142], the 50% inhibitory concentration (IC50) is over 4000 nM.

The next test has as its target T1, BaF3 (EGFR Del19/C797S) (Homo sapiens, UniProt P00533, C797S, cells depend on it, form not given).
T1 construct: BaF3 (EGFR Del19/C797S)|DC|RPMI1640 + 10% FBS
Description: Cell proliferation IC50 assay (Cell Titer GLO), BaF3 DC cells. The format is cell-based, mouse. Particulars: Table 6, 72 h. Here is the method: as §1, §2, §3
As for `CCc1cc(Nc2ncc(-c3cnn(C)c3)c(Nc3ccccc3P(C)(C)=O)n2)c(OC)cc1N1CCC(N2CCN(Cc3ccc4c(c3)CN(C3CCC(=O)NC3=O)C4=O)CC2)CC1` (stereo not shown) [Example E217], half-maximal inhibition (IC50) was put at 0.9 nM.

With `CCc1cc(Nc2ncc(Cl)c(Nc3ccccc3P(C)(C)=O)n2)c(OC)cc1N1CCC(N2CCN(CCCCOc3cccc4c3CN(C3CCC(=O)NC3=O)C4=O)CC2=O)CC1` (stereo not shown) [Example E101], the concentration for half-maximal inhibition (IC50) came to 6.8 nM.

Turning to `CCc1cc(Nc2ncc(Cl)c(Nc3ccccc3P(C)(C)=O)n2)c(OC)cc1N1CCC(N2CCN(CCOc3cc(F)cc4c3CN(C3CCC(=O)NC3=O)C4=O)CC2)CC1` (stereo not shown) [Example E66], half-maximal inhibition (IC50) required 10.6 nM.

The compound `CCc1cc(Nc2ncc(Cl)c(Nc3ccc4[nH]ncc4c3P(C)(C)=O)n2)c(OC)cc1N1CCC(N2CCN(CCC#Cc3cccc4c3CN(C3CCC(=O)NC3=O)C4=O)CC2)CC1` (stereo not shown) [Example E51] registered an IC50 of 14 nM.

`CCc1cc(Nc2nc(Nc3ccccc3P(C)(C)=O)c3cc[nH]c3n2)c(C(F)(F)F)cc1N1CCC(N2CCN(CCCCOc3cccc4c3CN(C3CCC(=O)NC3=O)C4=O)CC2)CC1` (stereo not shown) [Example E154] gave a half-maximal inhibitory concentration (IC50) of 446 nM.

In turn, `CCc1cc(Nc2nc(Nc3ccccc3P(C)(C)=O)c3cc[nH]c3n2)c(OC)cc1N1CCC(N2CCN(CCCCOc3cccc4c3CN(C3CCC(=O)NC3=O)C4=O)CC2)CC1` (stereo not shown) [Example E64] came in with an IC50 of 11.7 nM.

The compound `CCc1cc(Nc2nc(Nc3ccccc3P(C)(C)=O)c3cc[nH]c3n2)c(C(C)(C)O)cc1N1CCC(N2CCN(CCCCOc3cccc4c3CN(C3CCC(=O)NC3=O)C4=O)CC2)CC1` (stereo not shown) [Example E142] registered an IC50 of 124 nM.

The subject of the next test is BaF3 (EGFR WT). Kind of test: Cell proliferation IC50 assay (Cell Titer GLO), BaF3 WT cells. Particulars: Mus musculus, Ba/F3 EGFR, Table 6, 10 ng/ml EGF, 72 h. The format is cell-based. Here is the method: as §1, §2, §3
Consider `CCc1cc(Nc2ncc(-c3cnn(C)c3)c(Nc3ccccc3P(C)(C)=O)n2)c(OC)cc1N1CCC(N2CCN(Cc3ccc4c(c3)CN(C3CCC(=O)NC3=O)C4=O)CC2)CC1` (stereo not shown) [Example E217], for which inhibition was half-maximal at 623 nM (IC50).

The compound `CCc1cc(Nc2ncc(Cl)c(Nc3ccccc3P(C)(C)=O)n2)c(OC)cc1N1CCC(N2CCN(CCCCOc3cccc4c3CN(C3CCC(=O)NC3=O)C4=O)CC2=O)CC1` (stereo not shown) [Example E101] returned an IC50 of 1690 nM.

Consider `CCc1cc(Nc2ncc(Cl)c(Nc3ccccc3P(C)(C)=O)n2)c(OC)cc1N1CCC(N2CCN(CCOc3cc(F)cc4c3CN(C3CCC(=O)NC3=O)C4=O)CC2)CC1` (stereo not shown) [Example E66], for which the IC50 was determined as 2490 nM.

The compound `CCc1cc(Nc2ncc(Cl)c(Nc3ccc4[nH]ncc4c3P(C)(C)=O)n2)c(OC)cc1N1CCC(N2CCN(CCC#Cc3cccc4c3CN(C3CCC(=O)NC3=O)C4=O)CC2)CC1` (stereo not shown) [Example E51] gave an IC50 of over 4000 nM.

In turn, `CCc1cc(Nc2nc(Nc3ccccc3P(C)(C)=O)c3cc[nH]c3n2)c(C(F)(F)F)cc1N1CCC(N2CCN(CCCCOc3cccc4c3CN(C3CCC(=O)NC3=O)C4=O)CC2)CC1` (stereo not shown) [Example E154] returned a concentration for half-maximal inhibition (IC50) of over 4000 nM.

For the compound `CCc1cc(Nc2nc(Nc3ccccc3P(C)(C)=O)c3cc[nH]c3n2)c(OC)cc1N1CCC(N2CCN(CCCCOc3cccc4c3CN(C3CCC(=O)NC3=O)C4=O)CC2)CC1` (stereo not shown) [Example E64], the 50% inhibitory concentration (IC50) is over 4000 nM.

Regarding `CCc1cc(Nc2nc(Nc3ccccc3P(C)(C)=O)c3cc[nH]c3n2)c(C(C)(C)O)cc1N1CCC(N2CCN(CCCCOc3cccc4c3CN(C3CCC(=O)NC3=O)C4=O)CC2)CC1` (stereo not shown) [Example E142], the half-maximal inhibitory concentration (IC50) was found to be 792 nM.

The next test deals with BaF3 (EGFR L858R/T790M/C797S). Description: Cell proliferation IC50 assay (Cell Titer GLO), BaF3 LTC cells. It counts as cell-based. The note with it: Mus musculus, Ba/F3 EGFR, Table 6, 72 h. Here is the method: as §1, §2, §3
For `CCc1cc(Nc2ncc(-c3cnn(C)c3)c(Nc3ccccc3P(C)(C)=O)n2)c(OC)cc1N1CCC(N2CCN(Cc3ccc4c(c3)CN(C3CCC(=O)NC3=O)C4=O)CC2)CC1` (stereo not shown) [Example E217], the 50% inhibitory concentration (IC50) was over 4000 nM.

`CCc1cc(Nc2ncc(Cl)c(Nc3ccccc3P(C)(C)=O)n2)c(OC)cc1N1CCC(N2CCN(CCCCOc3cccc4c3CN(C3CCC(=O)NC3=O)C4=O)CC2=O)CC1` (stereo not shown) [Example E101] gave an IC50 of 51.6 nM.

`CCc1cc(Nc2ncc(Cl)c(Nc3ccccc3P(C)(C)=O)n2)c(OC)cc1N1CCC(N2CCN(CCOc3cc(F)cc4c3CN(C3CCC(=O)NC3=O)C4=O)CC2)CC1` (stereo not shown) [Example E66]: 59.7 nM corresponded to half-maximal inhibition (IC50).

In the case of `CCc1cc(Nc2ncc(Cl)c(Nc3ccc4[nH]ncc4c3P(C)(C)=O)n2)c(OC)cc1N1CCC(N2CCN(CCC#Cc3cccc4c3CN(C3CCC(=O)NC3=O)C4=O)CC2)CC1` (stereo not shown) [Example E51], the concentration for half-maximal inhibition (IC50) was 57.8 nM.

Compound `CCc1cc(Nc2nc(Nc3ccccc3P(C)(C)=O)c3cc[nH]c3n2)c(C(F)(F)F)cc1N1CCC(N2CCN(CCCCOc3cccc4c3CN(C3CCC(=O)NC3=O)C4=O)CC2)CC1` (stereo not shown) [Example E154] had an IC50 of 3430 nM.

In turn, `CCc1cc(Nc2nc(Nc3ccccc3P(C)(C)=O)c3cc[nH]c3n2)c(OC)cc1N1CCC(N2CCN(CCCCOc3cccc4c3CN(C3CCC(=O)NC3=O)C4=O)CC2)CC1` (stereo not shown) [Example E64] gave an IC50 of 41.5 nM.

Turning to `CCc1cc(Nc2nc(Nc3ccccc3P(C)(C)=O)c3cc[nH]c3n2)c(C(C)(C)O)cc1N1CCC(N2CCN(CCCCOc3cccc4c3CN(C3CCC(=O)NC3=O)C4=O)CC2)CC1` (stereo not shown) [Example E142], the concentration for half-maximal inhibition (IC50) was found to be 1100 nM.

Values taken from patent US20240408216A1, “PROTEIN INHIBITOR OR DEGRADING AGENT, PHARMACEUTICAL COMPOSITION CONTAINING SAME AND PHARMACEUTICAL USE” (JING MEDICINE TECHNOLOGY (SHANGHAI) LTD., priority 2021, published 2024).
